By MIC is commonly meant the lowest concentration found to suppress growth.

Experimental findings from US10723741B1, “DNA polymerase IIIC inhibitors and use thereof” (Acurx Pharmaceuticals, LLC, priority 2018, dated 2020) are described below.

Holding throughout (type): cell-based
In experiment [1] the test system is Escherichia coli ATCC 25922. As to the kind of experiment: Broth microdilution MIC, E. coli ATCC 25922 (MHIIB w & w/o 4 mM EDTA). The note with it: broth microdilution, 37° C., 20 hours; for MIC: Escherichia coli, ATCC25922, without EDTA, read-out: MIC E. coli ATCC 25922; for MIC E. coli ATCC 25922 + 4 mM EDTA: with 4 mM EDTA. Put shortly: (§1)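 Two-fold dilutions from 64 to 0.0625 μg/ml final, 1% DMSO, were inoculated at ~5.0×10^5 cfu/ml in the strain's test medium and kept 20 h at 37 °C in ambient atmosphere. Colonies were grown on MHA, with S. pneumoniae on blood agar under 5% CO2.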
A general note: Dilution methods test growth across graded concentrations, often in twofold steps.

The test system of experiment [2] is Enterococcus faecium ATCC 700221 (VRE). Briefly: Broth microdilution MIC, E. faecium ATCC 700221 (VRE). Details: MIC E. faecium ATCC 700221 (VRE): unit: ug/mL. As to conditions: broth microdilution, 37° C., 20 hours; for MIC: Enterococcus faecium, read-out: MIC E. faecium ATCC 700221 (VRE). Put shortly:
as §1

For experiment [3], the system named is Staphylococcus aureus ATCC 29213 (MSSA). As to the kind of experiment: Broth microdilution MIC, S. aureus ATCC 29213 (MSSA). As to conditions: broth microdilution, 37° C., 20 hours, read-out: MIC S. aureus ATCC 29213 (MSSA). Put shortly: as §1
The test system of experiment [4] is Streptococcus pneumoniae ATCC 49619. Briefly: Broth microdilution MIC, S. pneumoniae ATCC 49619. As to conditions: ATCC49619, broth microdilution, 37° C., 20 hours, read-out: MIC S. pneumoniae ATCC 49619. Put shortly: as §1
Experiment [5] deals with Enterococcus faecalis ATCC 29212. Briefly: Broth microdilution MIC, E. faecalis ATCC 29212. As to conditions: ATCC29212, broth microdilution, 37° C., 20 hours, read-out: MIC E. faecalis ATCC 29212. Put shortly: as §1
Experiment [6] has as its system Bacillus subtilis ATCC 6633. Briefly: Broth microdilution MIC, B. subtilis ATCC 6633. The note with it: ATCC6633, broth microdilution, 37° C., 20 hours, read-out: MIC B. subtilis ATCC 6633. Summed up: as §1
The subject of experiment [7] is Staphylococcus aureus NRS384 (MRSA). Briefly: Broth microdilution MIC, S. aureus NRS384 (MRSA). On the set-up: MIC NRS 384 (MRSA): unit not given here. The note with it: broth microdilution, 37° C., 20 hours; for MIC: Staphylococcus aureus, read-out: MIC NRS 384 (MRSA). Put shortly: as §1

In brackets after ≈: the same amount, converted by molar mass. Where two headings read alike, the source gives them in different places. Some results are limits rather than exact numbers.

Turning to `CN(CCn1ncc2nc(NCc3ccc(Cl)c(Cl)c3)[nH]c(=O)c21)C(=O)c1cc(Cl)nnc1Cl` [Compound 85, 3,6-dichloro-N-(2-(5-((3,4-dichlorobenzyl)amino)-7-oxo-6,7-dihydro-1H-pyrazolo[4,3-d]pyrimidin-1-yl)ethyl)-N-methylpyridazine-4-carboxamide], the MIC was above 64 µg/mL in experiment [1]; 4 µg/mL (≈ 7.38 µM) in experiment [2]; 8 µg/mL (≈ 14.8 µM) in experiment [3]; 8 µg/mL (≈ 14.8 µM) in experiment [4]; 8 µg/mL (≈ 14.8 µM) in experiment [5]; 4 µg/mL (≈ 7.38 µM) in experiment [6]. For the same compound, the MIC in experiment [7] was 8 µg/mL (≈ 14.8 µM). Further, in experiment [1], the “MIC E. coli ATCC 25922 + 4 mM EDTA” value came to 16 µg/mL.
In the case of `CN(CCn1ncc2nc(NCc3ccc(Cl)c(Cl)c3)[nH]c(=O)c21)C(=O)c1cc(Cl)nnc1O` [Compound 81, 6-Chloro-N-(2-(5-((3,4-dichlorobenzyl)amino)-7-oxo-6,7-dihydro-1H-pyrazolo[4,3-d]pyrimidin-1-yl)ethyl)-3-hydroxy-N-methylpyridazine-4-carboxamide], the MIC was above 64 µg/mL in experiment [1]; 32 µg/mL (≈ 61.1 µM) in experiment [2]; 64 µg/mL (≈ 122 µM) in experiment [3]; 8 µg/mL (≈ 15.3 µM) in experiment [4]; 32 µg/mL (≈ 61.1 µM) in experiment [5]; 64 µg/mL (≈ 122 µM) in experiment [6]. In experiment [7], the MIC is 64 µg/mL (≈ 122 µM). In experiment [1], the “MIC E. coli ATCC 25922 + 4 mM EDTA” value was determined as 64 µg/mL.
`O=c1[nH]c(NCc2ccc(Cl)c(Cl)c2)nc2cnn(CCOC3COC3)c12` [Compound 178, 5-((3,4-Dichlorobenzyl)amino)-1-(2-(oxetan-3-yloxy)ethyl)-1H-pyrazolo[4,3-d]pyrimidin-7(6H)-one]: the MIC in experiment [1] was above 64 µg/mL; in experiment [3], 4 µg/mL (≈ 9.75 µM); in experiment [4], 4 µg/mL (≈ 9.75 µM); in experiment [5], 8 µg/mL (≈ 19.5 µM); in experiment [6], 2 µg/mL (≈ 4.87 µM). In addition, in experiment [1], the “MIC E. coli ATCC 25922 + 4 mM EDTA” value was above 64 µg/mL. For the same compound, the “MIC E. faecium ATCC 700221 (VRE)” value in experiment [2] is given as 4/4. In experiment [7], the “MIC NRS 384 (MRSA)” value is reported as 4/4.
As to `COC(=O)c1nn(C)c2c(=O)[nH]c(NCc3ccc(Cl)c(Cl)c3)nc12` [Compound 40, Methyl 5-((3,4-dichlorobenzyl)amino)-1-methyl-7-oxo-6,7-dihydro-1H-pyrazolo[4,3-d]pyrimidine-3-carboxylate], the minimal inhibitory concentration (MIC) in experiment [1], in experiment [2], in experiment [3], in experiment [4], in experiment [5] and in experiment [6] was above 64 µg/mL throughout. Moreover, the MIC in experiment [7] was above 64 µg/mL. The “MIC E. coli ATCC 25922 + 4 mM EDTA” value in experiment [1] is above 64 µg/mL.
Take `COc1ccc(Cn2ncc3nc(NCc4ccc(Cl)c(Cl)c4)[nH]c(=O)c32)cc1OC` [Compound 190, 5-((3,4-Dichlorobenzyl)amino)-1-(3,4-dimethoxybenzyl)-1H-pyrazolo[4,3-d]pyrimidin-7(6H)-one]: the MIC in experiment [1], in experiment [2], in experiment [3], in experiment [4], in experiment [5] and in experiment [6] was above 64 µg/mL throughout. Further, the minimal inhibitory concentration (MIC) in experiment [7] is above 64 µg/mL. Moreover, the “MIC E. coli ATCC 25922 + 4 mM EDTA” value in experiment [1] was above 64 µg/mL.
As for `Cl.O=c1[nH]c(NCc2ccc(Cl)c(Cl)c2)nc2cnn(C3CCN(S(=O)(=O)c4cccnc4)CC3)c12` [Compound 156, 5-((3,4-dichlorobenzyl)amino)-1-(1-(pyridin-3-ylsulfonyl)piperidin-4-yl)-1H-pyrazolo[4,3-d]pyrimidin-7(6H)-one hydrochloride], the minimal inhibitory concentration (MIC) in experiment [1] was above 64 µg/mL; in experiment [2], 1 µg/mL; in experiment [3], 2 µg/mL; in experiment [4], 4 µg/mL; in experiment [5] it was above 64 µg/mL; in experiment [6] it was 1 µg/mL. In addition, the MIC in experiment [7] came out at 2 µg/mL. In addition, the “MIC E. coli ATCC 25922 + 4 mM EDTA” value in experiment [1] is above 64 µg/mL.
On to `Cl.O=C([C@@H]1C[C@H](O)CN1)N1CCC(n2ncc3nc(NCc4ccc(Cl)c(Cl)c4)[nH]c(=O)c32)CC1` [Compound 278, 5-((3,4-dichlorobenzyl)amino)-1-(1-((2S,4S)-4-hydroxypyrrolidine-2-carbonyl)piperidin-4-yl)-1H-pyrazolo[4,3-d]pyrimidin-7(6H)-one hydrochloride], for which the minimum inhibitory concentration (MIC) is above 64 µg/mL in experiment [1]; 64 µg/mL in experiment [2]; above 64 µg/mL in experiment [3]; 32 µg/mL in experiment [4]; above 64 µg/mL in experiment [5]; 32 µg/mL in experiment [6]. Moreover, the MIC in experiment [7] was above 64 µg/mL. Moreover, in experiment [1], the “MIC E. coli ATCC 25922 + 4 mM EDTA” value was above 64 µg/mL.
With `O=c1[nH]c(NCc2ccc(Cl)c(Cl)c2)nc2cnn(-c3ncccn3)c12` [Compound 139, 5-((3,4-Dichlorobenzyl)amino)-1-(pyrimidin-2-yl)-1H-pyrazolo[4,3-d]pyrimidin-7(6H)-one], the MIC in experiment [1], in experiment [2], in experiment [3], in experiment [4], in experiment [5] and in experiment [6] was above 64 µg/mL in each case. In addition, the minimum inhibitory concentration (MIC) in experiment [7] was above 64 µg/mL. In addition, the “MIC E. coli ATCC 25922 + 4 mM EDTA” value in experiment [1] was above 64 µg/mL.
Take `O=c1[nH]c(NCc2ccc(F)c(F)c2)nc2c(F)nn(CC3CCO3)c12` (stereo not shown) [Compound 315, 5-[(3,4-difluorophenyl)methylamino]-3-fluoro-1-(oxetan-2-ylmethyl)-6H-pyrazolo[4,3-d]pyrimidin-7-one]: the MIC in experiment [1] was above 64 µg/mL; in experiment [2] it was 2 µg/mL (≈ 5.47 µM); in experiment [3] it was 4 µg/mL (≈ 10.9 µM); in experiment [4] it was 2 µg/mL (≈ 5.47 µM); in experiment [5], 8 µg/mL (≈ 21.9 µM); in experiment [6], 1 µg/mL (≈ 2.74 µM). In addition, in experiment [7] (S. aureus NRS 384), the minimum inhibitory concentration (MIC) came out at 4 µg/mL (≈ 10.9 µM). Further, the “MIC E. coli ATCC 25922 + 4 mM EDTA” value in experiment [1] is above 64 µg/mL.
`Cn1ncc2nc(NCc3ccc4[nH]ccc4c3)[nH]c(=O)c21` [Compound 14, 5-(((1H-indol-5-yl)methyl)amino)-1-methyl-1H-pyrazolo[4,3-d]pyrimidin-7(6H)-one]: the minimum inhibitory concentration (MIC) in experiment [1], in experiment [2], in experiment [3], in experiment [4], in experiment [5] and in experiment [6] was above 64 µg/mL throughout. Also, in experiment [7], the MIC is above 64 µg/mL. Besides, the “MIC E. coli ATCC 25922 + 4 mM EDTA” value in experiment [1] was above 64 µg/mL.
As to `Cl.O=c1[nH]c(NCc2ccc(Cl)c(Cl)c2)nc2cnn(CCOCc3cccnc3)c12` [Compound 181, 5-((3,4-Dichlorobenzyl)amino)-1-(2-(pyridin-3-ylmethoxy)ethyl)-1H-pyrazolo[4,3-d]pyrimidin-7(6H)-one hydrochloride], the minimum inhibitory concentration (MIC) in experiment [1] is above 64 µg/mL; in experiment [3] it was 4 µg/mL; in experiment [4], 4 µg/mL; in experiment [5], 8 µg/mL; in experiment [6], 1 µg/mL. In addition, the “MIC E. coli ATCC 25922 + 4 mM EDTA” value in experiment [1] was above 64. ug/ml. The “MIC E. faecium ATCC 700221 (VRE)” value in experiment [2] is reported as 4/1. Also, the “MIC NRS 384 (MRSA)” value in experiment [7] was 4/2.
Turning to `O=c1[nH]c(NCc2ccc(Cl)c(Cl)c2)nc2cnn(CCSCCO)c12` [Compound 104, 5-((3,4-Dichlorobenzyl)amino)-1-(2-((2-hydroxyethyl)thio)ethyl)-1H-pyrazolo[4,3-d]pyrimidin-7(6H)-one], the minimal inhibitory concentration (MIC) in experiment [1] was above 64 µg/mL; in experiment [3] it was 4 µg/mL (≈ 9.65 µM); in experiment [4] it was 4 µg/mL (≈ 9.65 µM); in experiment [5], 4 µg/mL (≈ 9.65 µM); in experiment [6], 1 µg/mL (≈ 2.41 µM). Further, the “MIC E. coli ATCC 25922 + 4 mM EDTA” value in experiment [1] was above 64 µg/mL. The “MIC E. faecium ATCC 700221 (VRE)” value in experiment [2] is on record as 2/2. Further, the “MIC NRS 384 (MRSA)” value in experiment [7] was 4/4.
For the compound `O=c1[nH]c(NCc2ccc(Cl)c(Cl)c2)nc2c(F)n[nH]c12` [Compound 54, 5-[(3,4-Dichlorophenyl)methylamino]-3-fluoro-1,6-dihydropyrazolo[4,3-d]pyrimidin-7-one], the MIC in experiment [1] is above 64 µg/mL; in experiment [2] it was 4 µg/mL (≈ 12.2 µM); in experiment [3], 8 µg/mL (≈ 24.4 µM); in experiment [4] it was 32 µg/mL (≈ 97.5 µM); in experiment [5], 16 µg/mL (≈ 48.8 µM); in experiment [6], 4 µg/mL (≈ 12.2 µM). Further, the minimal inhibitory concentration (MIC) in experiment [7] stood at 8 µg/mL (≈ 24.4 µM). In addition, in experiment [1], the “MIC E. coli ATCC 25922 + 4 mM EDTA” value is above 64 µg/mL.
With `CCOC(=O)CCCn1ncc2nc(NCc3ccc(Cl)c(Cl)c3)[nH]c(=O)c21` [Compound 205, ethyl 4-(5-((3,4-dichlorobenzyl)amino)-7-oxo-6,7-dihydro-1H-pyrazolo[4,3-d]pyrimidin-1-yl)butanoate], the minimal inhibitory concentration (MIC) in experiment [1] was above 64 µg/mL; in experiment [2] it was 2 µg/mL (≈ 4.71 µM); in experiment [3], 4 µg/mL (≈ 9.43 µM); in experiment [4], 8 µg/mL (≈ 18.9 µM); in experiment [5], 4 µg/mL (≈ 9.43 µM); in experiment [6], 1 µg/mL (≈ 2.36 µM). For the same compound, the minimal inhibitory concentration (MIC) in experiment [7] amounted to 2 µg/mL (≈ 4.71 µM). The “MIC E. coli ATCC 25922 + 4 mM EDTA” value in experiment [1] is above 64 µg/mL.
